≈ marks a conversion by molar mass, not a printed value. Blank lines part the entries; values can stand above or below the molecule they belong to.
Key:
[1] = Solubility of the compound in phosphate buffered saline at pH 7.4 containing 1% DMSO after 18 hrs by UPLC-MS method; assay type: physicochemical; conditions: phosphate buffered saline with 1% DMSO
[2] = Dissociation constant, pKa of the compound for N15, 3'-amine group by dip probe absorption spectroscopy; assay type: physicochemical
[3] = Dissociation constant, pKa of the compound for N34 pyridine group by dip probe absorption spectroscopy; assay type: physicochemical
[4] = Efflux ratio of apparent permeability from basolateral to apical side to apical to basolateral side of human Caco2 cells; assay type: ADME, cell-based; conditions: Caco-2
[5] = Lipophilicity, log D of the compound by shake flask technique; assay type: physicochemical; conditions: octanol/water

SMILES: C[C@@H](CO)N1C(=O)c2cccc(NC(=O)c3ccncc3)c2O[C@@H](CN(C)Cc2ccc(Oc3ccccc3)cc2)[C@@H]1C
solubility kinetic at 18 h [1]: 1 µM (≈ 0.581 µg/mL)
pKa [2]: 6.08
pKa [3]: 2.76
efflux ratio [4]: 0.36

SMILES: C[C@@H]1[C@@H](CN(C)Cc2ccc(Oc3ccccc3)cc2)Oc2c(NC(=O)c3ccncc3)cccc2C(=O)N1[C@@H](C)CO
solubility kinetic at 18 h [1]: 1 µM (≈ 0.581 µg/mL)
pKa [2]: 6.18
pKa [3]: 2.77
efflux ratio [4]: 0.1

SMILES: C[C@H](CO)N1C(=O)c2cccc(NC(=O)c3ccncc3)c2O[C@@H](CN(C)Cc2ccc(Oc3ccccc3)cc2)[C@@H]1C
solubility kinetic at 18 h [1]: 2 µM (≈ 1.16 µg/mL)
pKa [2]: 6.14
pKa [3]: 2.76
efflux ratio [4]: 0.42

SMILES: C[C@H](CO)N1C(=O)c2cccc(NC(=O)c3ccncc3)c2O[C@H](CN(C)Cc2ccc(Oc3ccccc3)cc2)[C@H]1C
solubility kinetic at 18 h [1]: 1 µM (≈ 0.581 µg/mL)
pKa [2]: 6.08
pKa [3]: 2.77
efflux ratio [4]: 0.31

Now from value to molecule:

solubility kinetic at 18 h [1]: 86 µM (≈ 49.9 µg/mL)
logD [5]: 3.4
pKa [2]: 7.07
pKa [3]: 2.98
efflux ratio [4]: 0.47
SMILES: C[C@H](CO)N1C(=O)c2cccc(NC(=O)c3ccncc3)c2O[C@@H](CN(C)Cc2ccc(Oc3ccccc3)cc2)[C@H]1C

solubility kinetic at 18 h [1]: 93 µM (≈ 54 µg/mL)
logD [5]: 3.4
pKa [2]: 7.08
pKa [3]: 2.98
efflux ratio [4]: 0.41
SMILES: C[C@@H](CO)N1C(=O)c2cccc(NC(=O)c3ccncc3)c2O[C@H](CN(C)Cc2ccc(Oc3ccccc3)cc2)[C@@H]1C

solubility kinetic at 18 h [1]: 98 µM (≈ 56.9 µg/mL)
logD [5]: 3.4
pKa [2]: 7.16
pKa [3]: 2.98
efflux ratio [4]: 0.36
SMILES: C[C@H](CO)N1C(=O)c2cccc(NC(=O)c3ccncc3)c2O[C@H](CN(C)Cc2ccc(Oc3ccccc3)cc2)[C@@H]1C

solubility kinetic at 18 h [1]: 87 µM (≈ 50.5 µg/mL)
logD [5]: 3.4
pKa [2]: 7.16
pKa [3]: 2.97
efflux ratio [4]: 0.48
SMILES: C[C@@H]1[C@H](CN(C)Cc2ccc(Oc3ccccc3)cc2)Oc2c(NC(=O)c3ccncc3)cccc2C(=O)N1[C@@H](C)CO

From ChEMBL document CHEMBL3232955, “Impact of stereospecific intramolecular hydrogen bonding on cell permeability and physicochemical properties” (J Med Chem, 2014)
